Source: US20260070945A1, “MACROCYCLIC IMMUNOMODULATORS” (Bristol-Myers Squibb Company, priority 2022, published 2026)
pIC50: −log10 of the molar value. *1 amine or outer side, *2 acyl side, *3 side chain or, on linkers, in order; H or OH if unused. Where a SMILES comes first, the peptide text is derived from it. Bridges are numbered along the chain shown (N, C = ends). [ ]: non-standard residue; d: D form. The star is where a group is joined. ξ: configuration not given here. Phe(4-CH2CH2COOH) = N[C@@H](Cc1ccc(CCC(=O)O)cc1)C(=O)O; Phe(3-CF3) = N[C@@H](Cc1cccc(C(F)(F)F)c1)C(=O)O; Phe(4-COOH) = N[C@@H](Cc1ccc(C(=O)O)cc1)C(=O)O; Bip = N[C@@H](Cc1ccc(-c2ccccc2)cc1)C(=O)O; Phe(3-F) = N[C@@H](Cc1cccc(F)c1)C(=O)O; Phe(3-Me) = Cc1cccc(C[C@H](N)C(=O)O)c1; γGlu = O=C(O)[C@H](CCC(=O)[*:2])N[*:1]; NH(CH2)12COOH = O=C(O)CCCCCCCCCCCCN*; Val(3-OH) = CC(C)(O)[C@H](N)C(=O)O; dAla(cPr) = N[C@H](CC1CC1)C(=O)O; 4Pal = N[C@@H](Cc1ccncc1)C(=O)O; Cha = N[C@@H](CC1CCCCC1)C(=O)O; Cit = NC(=O)NCCC[C@H](N)C(=O)O; Ile(3ξ) = CCC(C)[C@H](N)C(=O)O; Thr(3ξ) = CC(O)[C@H](N)C(=O)O; 12Ado = NCCCCCCCCCCCC(=O)O; Carboxymethyl = O=C(O)C*; NMeA = CN[C@@H](C)C(=O)O; Orn = NCCC[C@H](N)C(=O)O; Aun = NCCCCCCCCCCC(=O)O; Dab = NCC[C@H](N)C(=O)O; Dap = NC[C@H](N)C(=O)O; AEEA = NCCOCCOCC(=O)O; Piv = CC(C)(C)C(=O)*; Propargyl = C#CC*; CF3 = FC(F)(F)*

Target: T1, PD-1/PD-L1 interaction (PE-labeled human PD-L1-Ig binding to Jurkat cell line over-expressing human PD-1) (Homo sapiens, UniProt Q15116)
T1 construct: expressed in transfected cells; host or cells: Jurkat
T1 sequence (Q15116 25-288): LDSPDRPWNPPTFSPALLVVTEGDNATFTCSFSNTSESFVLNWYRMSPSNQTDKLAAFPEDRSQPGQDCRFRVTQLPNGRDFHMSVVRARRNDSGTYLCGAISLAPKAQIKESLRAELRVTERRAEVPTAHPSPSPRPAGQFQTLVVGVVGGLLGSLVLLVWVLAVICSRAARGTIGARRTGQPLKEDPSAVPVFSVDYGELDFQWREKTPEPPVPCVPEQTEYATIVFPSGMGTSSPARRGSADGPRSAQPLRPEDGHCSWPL
Experiment: Jurkat-PD-1 Cell Binding High-Content Screening Assay (CBA)
Conditions: Jurkat-hPD-1 cells, PE-labeled PD-L1-Ig 20 nM final; read-out: Jurkat HPD1 PDL1 IC50
Method in brief: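 High-content imaging read-out of PE-PD-L1-Ig binding (20 nM final, 1 h) to Jurkat-hPD-1 cells, after 2 h compound exposure at 37 °C in DMEM with 10% FCS. Nuclei counterstained with Hoechst 33342 after paraformaldehyde fixation.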

pIC50	SMILES
7.90	Cc1cccc(C[C@@H]2NC(=O)[C@H](CC(=O)O)NC(=O)[C@H](Cc3ccc(C(=O)O)cc3)NC(=O)[C@H](Cc3ccncc3)NC(=O)CSC[C@@H](C(=O)N[C@@H](CCN)C(=O)NCCCCCCCCCCC(=O)O)NC(=O)[C@H](CO)NC(=O)[C@H](C(C)(C)O)NC(=O)[C@H](CC3CCCCC3)NC(=O)[C@H](CCN)NC(=O)[C@@H](CC(C)C)NC(=O)[C@H](C)N(C)C(=O)[C@H](Cc3ccc(OCC(=O)O)cc3)NC(=O)[C@H](Cc3ccc(-c4ccccc4)cc3)NC(=O)[C@H](Cc3cccc(F)c3)NC2=O)c1 [Example 1309] ({CH2CO}-[4Pal][Phe(4-COOH)]D[Phe(3-Me)][Phe(3-F)][Bip]Y(Carboxymethyl)[NMeA][dL][Dab][Cha][Val(3-OH)]SC[Dab][Aun]-OH; thioether N-14)
7.29	Cc1cccc(C[C@@H]2NC(=O)[C@H](CC(=O)O)NC(=O)[C@H](Cc3ccc(OCC(=O)O)cc3)NC(=O)[C@H](CN)NC(=O)CSC[C@@H](C(=O)N[C@@H](CCCN)C(=O)N[C@@H](CO)C(=O)NCCCCCCCCCCCC(=O)O)NC(=O)[C@H](C(C)O)NC(=O)[C@H](C(C)C)NC(=O)[C@H](CC3CCCCC3)NC(=O)[C@H](CCN)NC(=O)[C@@H](CC(C)C)NC(=O)[C@H](C)N(C)C(=O)[C@H](CCCNC(N)=O)NC(=O)[C@H](Cc3ccc(-c4ccccc4)cc3)NC(=O)[C@H](Cc3ccc(O)cc3)NC2=O)c1 (stereo partly drawn) [Example 2402] ({CH2CO}-[Dap]Y(Carboxymethyl)D[Phe(3-Me)]Y[Bip][Cit][NMeA][dL][Dab][Cha]V[Thr(3ξ)]C[Orn]S[12Ado]-OH; thioether N-14)
8.03	CCC(C)[C@@H]1NC(=O)[C@H](Cc2ccc(-c3ccccc3)cc2)NC(=O)[C@H](C(C)C)NC(=O)[C@H](Cc2c[nH]c3ccccc23)NC(=O)[C@H](CC(=O)O)NC(=O)[C@H](Cc2ccc(OCC(=O)O)cc2)NC(=O)[C@H](C(C)O)NC(=O)CSC[C@@H](C(=O)N[C@H](CC(N)=O)C(=O)NCCOCCOCC(=O)NCCCCCCCCCCC(=O)O)NC(=O)[C@H](CO)NC(=O)[C@H](C(C)C)NC(=O)[C@H](CC2CCCCC2)NC(=O)[C@H](CCN)NC(=O)[C@@H](CC(C)C)NC(=O)[C@H](C)N(C)C1=O (stereo partly drawn) [Example 2031] ({CH2CO}-[Thr(3ξ)]Y(Carboxymethyl)DWV[Bip][Ile(3ξ)][NMeA][dL][Dab][Cha]VSC[dN][AEEA][Aun]-OH; thioether N-14)
7.89	CC(=O)NCCCC[C@@H]1NC(=O)[C@H](C(C)C)NC(=O)[C@H](CC2CCCCC2)NC(=O)[C@H](CCN)NC(=O)[C@@H](CC(C)C)NC(=O)[C@H](C)N(C)C(=O)[C@H](CCC(N)=O)NC(=O)[C@H](Cc2ccc(-c3ccccc3)cc2)NC(=O)[C@H](CC(C)C)NC(=O)[C@H](Cc2cccc(C)c2)NC(=O)[C@H](CC(=O)O)NC(=O)[C@H](Cc2ccc(C(=O)O)cc2)NC(=O)[C@H](Cc2ccc(OCC(=O)O)cc2)NC(=O)CSC[C@@H](C(=O)NCCOCCOCC(=O)NCCCCCCCCCCC(=O)O)NC1=O [Example 2230] ({CH2CO}-Y(Carboxymethyl)[Phe(4-COOH)]D[Phe(3-Me)]L[Bip]Q[NMeA][dL][Dab][Cha]VK(Ac)C[AEEA][Aun]-OH; thioether N-14)

More lines, now with the values behind:

SMILES	pIC50
C#CCOC[C@@H]1NC(=O)[C@H](C(C)C)NC(=O)[C@H](CC2CCCCC2)NC(=O)[C@H](CCN)NC(=O)[C@@H](CC(C)C)NC(=O)[C@H](C)N(C)C(=O)[C@H](Cc2ccc(OCC(=O)O)cc2)NC(=O)[C@H](Cc2ccc(-c3ccccc3)cc2)NC(=O)[C@H](Cc2ccc(OCC(=O)O)cc2)NC(=O)[C@H](Cc2c[nH]c3ccccc23)NC(=O)[C@H](CC(=O)O)NC(=O)[C@H](Cc2ccncc2)NC(=O)[C@H](Cc2ccc(OCC(=O)O)cc2)NC(=O)CSC[C@@H](C(=O)N[C@@H](CCN)C(=O)NCCOCCOCC(=O)NCCCCCCCCCCC(=O)O)NC1=O [Example 1103] ({CH2CO}-Y(Carboxymethyl)[4Pal]DWY(Carboxymethyl)[Bip]Y(Carboxymethyl)[NMeA][dL][Dab][Cha]VS(Propargyl)C[Dab][AEEA][Aun]-OH; thioether N-14)	7.72
CC(C)C[C@@H]1NC(=O)[C@H](Cc2c[nH]c3ccccc23)NC(=O)[C@H](CC(=O)O)NC(=O)[C@H](Cc2ccc(C(=O)O)cc2)NC(=O)[C@H](Cc2ccc(OCC(=O)O)cc2)NC(=O)CSC[C@@H](C(=O)N[C@@H](CCCN)C(=O)NCCOCCOCC(=O)NCCCCCCCCCCC(=O)O)NC(=O)[C@H](CO)NC(=O)[C@H](C(C)C)NC(=O)[C@H](CC2CCCCC2)NC(=O)[C@H](CCN)NC(=O)[C@@H](CC2CC2)NC(=O)[C@H](C)N(C)C(=O)[C@H](C(C)C)NC(=O)[C@H](Cc2ccc(-c3ccccc3)cc2)NC1=O [Example 1248] ({CH2CO}-Y(Carboxymethyl)[Phe(4-COOH)]DWL[Bip]V[NMeA][dAla(cPr)][Dab][Cha]VSC[Orn][AEEA][Aun]-OH; thioether N-14)	7.74
CC(C)C[C@H]1NC(=O)[C@H](C)N(C)C(=O)[C@H](CCCNC(N)=O)NC(=O)[C@H](Cc2ccc(-c3ccccc3)cc2)NC(=O)[C@H](Cc2ccc(C(=O)O)cc2)NC(=O)[C@H](Cc2cccc(C(F)(F)F)c2)NC(=O)[C@H](CC(=O)O)NC(=O)[C@H](Cc2ccc(OCC(=O)O)cc2)NC(=O)[C@H](Cc2ccc(C(=O)O)cc2)NC(=O)CSC[C@@H](C(=O)N[C@@H](CCN)C(=O)NCCOCCOCC(=O)N[C@@H](CCC(=O)NCCOCCOCC(=O)NCCCCCCCCCCCCC(=O)O)C(=O)O)NC(=O)[C@H](CO)NC(=O)[C@H](C(C)(C)O)NC(=O)[C@H](CC2CCCCC2)NC(=O)[C@H](CCN)NC1=O [Example 1187] ({CH2CO}-[Phe(4-COOH)]Y(Carboxymethyl)D[Phe(3-CF3)][Phe(4-COOH)][Bip][Cit][NMeA][dL][Dab][Cha][Val(3-OH)]SC[Dab][AEEA][γGlu][AEEA]-{NH(CH2)12COOH}; thioether N-14)	7.42
Cc1cccc(C[C@@H]2NC(=O)[C@H](CC(=O)O)NC(=O)[C@H](Cc3ccc(CCC(=O)O)cc3)NC(=O)[C@H](CCNC(=O)C(C)(C)C)NC(=O)CSC[C@@H](C(=O)N[C@@H](CCN)C(=O)NCCCCCCCCCCC(=O)O)NC(=O)[C@H]([C@@H](C)O)NC(=O)[C@H](C(C)C)NC(=O)[C@H](CC3CCCCC3)NC(=O)[C@H](CCN)NC(=O)[C@@H](CC(C)C)NC(=O)[C@H](C)N(C)C(=O)[C@H](Cc3ccc(OCC(=O)O)cc3)NC(=O)[C@H](Cc3ccc(-c4ccccc4)cc3)NC(=O)[C@H](Cc3ccc(C(=O)O)cc3)NC2=O)c1 [Example 1269] ({CH2CO}-[Dab](Piv)[Phe(4-CH2CH2COOH)]D[Phe(3-Me)][Phe(4-COOH)][Bip]Y(Carboxymethyl)[NMeA][dL][Dab][Cha]VTC[Dab][Aun]-OH; thioether N-14)	7.72

Same assay, conditions: PE-labeled PD-L1-Ig 20 nM final, Jurkat-hPD-1 cells; read-out: Jurkat HPD1 PDL1 IC50

pIC50	SMILES
7.14	CC(=O)NCCCC[C@@H]1NC(=O)[C@H](C(C)(C)O)NC(=O)[C@H](CC2CCCCC2)NC(=O)[C@H](CCN)NC(=O)[C@@H](CC(C)C)NC(=O)[C@H](C)N(C)C(=O)[C@H](CCC(N)=O)NC(=O)[C@H](Cc2ccc(-c3ccccc3)cc2)NC(=O)[C@H](Cc2ccc(C(=O)O)cc2)NC(=O)[C@H](Cc2cccc(C)c2)NC(=O)[C@H](CC(=O)O)NC(=O)[C@H](Cc2ccc(OCC(=O)O)cc2)NC(=O)[C@H](Cc2ccc(OC(F)(F)F)cc2)NC(=O)CSC[C@@H](C(=O)N[C@@H](CCN)C(=O)NCCCCCCCCCCCCC(=O)O)NC1=O [Example 2620] ({CH2CO}-Y(CF3)Y(Carboxymethyl)D[Phe(3-Me)][Phe(4-COOH)][Bip]Q[NMeA][dL][Dab][Cha][Val(3-OH)]K(Ac)C[Dab]-{NH(CH2)12COOH}; thioether N-14)
